The source of these data is patent publication EP0165970B1, “HAIR GROWTH MODIFICATION” (KASZYNSKI, Edwin G., priority 1983, dated 1985).

One test deals with flank organ hair. Description: Flank organ hair mass (hair re-growth) after topical application. Format: in vivo. Particulars: adult intact male hamsters. The text has this:
The absence of antagonism of synthemic androgen activity in the practice of our invention can be shown by the topical application of suitable compositions to one of the two flank organs of mature male hamsters. Dose-related decreases in androgen-dependent flank organ hair growth are obtained on the treated side but no statistically significant change occurs in the contralateral, vehicle-treated side. Similar studies have been conducted using female hamsters in which hair growth on the flank organs has been stimulated by the subcutaneous administration of a suitable androgen.
Summarized below are the results of several experiments comparing the efficacy of several compositions in reducing the flank organ hair mass in adult intact male hamsters. In each case, hamsters were treated for 15 days (Monday-Friday) during a 21-day interval. Flank organ hairs were depilated on the first day of treatment and redepilated on the sixth day of treatment. The mass of flank organ hair represents the re-growth during the final 14 days of the 21-day interval. The results for percent inhibition shown below are based upon comparisons between the hair mass values of hairs hervested from treated flank organs of experimental animals and those obtained from vehicle-treated control animals.

In test [1] the test system is ornithine decarboxylase (ODC). Description: Flank organ ornithine decarboxylase (ODC) activity, in vivo screen for topical antiandrogens. Also noted: species or system hamsters. Particulars: for ODC activity in flank organs: applied topically, single agents. An excerpt: A novel method for screening topical antiandrogens has been developed in which the fluctuations in flank organ activity of the enzyme ornithine decarboxylase (ODC) in response to androgens and antiandrogens is exploited to provide a rapid, in vivo screen for antiandrogens, based on a biochemical parameter specifically related to androgenic stimulation of pilosebaceous target tissues.
A further series of investigations on the androgenic regulation of ODC activity in hamster flank organs has been conducted to test topical antiandrogenic formulations consisting of combination regimens.

The mark [2] stands for this setting: unilateral topical application, flank organs of intact (uncastrated) male hamsters.
The mark [3] stands for this setting: Experiment III, 500 micrograms per square centimeter.
[4] abbreviates: topical, androgen stimulated female hamsters.

In the case of `C[C@]12CC[C@H]3[C@@H](CCC4=CC(=O)CC[C@@]43C)[C@@H]1CC[C@@H]2C(=O)O` [4-androstene-3-one-17B- Carboxylic acid], the % Inhibition (as a rule, the percentage by which the read-out fell short of the control) with flank organ hair (Experiment II, 400 micrograms per square centimeter) is on record as 29%.

Regarding `CCC[C@]1(O)CC[C@H]2[C@@H]3CCC4=CC(=O)CC[C@]4(C)[C@H]3CC[C@@]21C` [17-α-Propyltestosterone], in the test on flank organ hair (Experiment I, 6 micrograms per square centimeter), the “% Inhibition” value is listed as 26%. In addition, in test [1], the “ODC activity in flank organs” value is recorded as “inhibit ODC activity”. Moreover, in test [1] (setting [2]), the ODC activity entry is recorded as “selectively decreased ODC activity on treated but not untreated flank organs”.

Turning to `C=CC[C@]1(O)CC[C@H]2[C@@H]3CCC4=CC(=O)CC[C@]4(C)[C@H]3CC[C@@]21C` [17-α-allyltestosterone], the “% Inhibition” value came out at 0% in the test on flank organ hair (Experiment IV, 5 micrograms per square centimeter); 29% with flank organ hair (Experiment IV, 20 micrograms per square centimeter); 50% in the test with flank organ hair (Experiment IV, 50 micrograms per square centimeter); 50% in the test with flank organ hair (Experiment IV, 100 micrograms per square centimeter). Moreover, the “ODC activity in flank organs” value in test [1] is on record as “inhibit ODC activity”. Besides, the ODC activity entry in test [1] (setting [2]) is listed as “selectively decreased ODC activity on treated but not untreated flank organs”.

`CC(=O)O[C@]1(C(C)=O)CC[C@H]2[C@@H]3C=C(Cl)C4=CC(=O)CC[C@]4(C)[C@H]3CC[C@@]21C` [Chlormadione acetate]: the “% Inhibition” value in the test with flank organ hair (setting [3]) worked out at 45%. The “ODC activity in flank organs” value in test [1] is reported as “inhibit ODC activity”.

Turning to `CC(=O)O[C@]1(C(C)=O)CC[C@H]2[C@@H]3C=C(Cl)C4=CC(=O)[C@@H]5C[C@@H]5[C@]4(C)[C@H]3CC[C@@]21C` [Cyproterone acetate], the “% Inhibition” value with flank organ hair (Experiment I, 500 micrograms per square centimeter) stood at 26%; in the test with flank organ hair (Experiment II, 50 micrograms per square centimeter), 23%; in the test with flank organ hair (Experiment II, 500 micrograms per square centimeter), 38%. Besides, the “ODC activity in flank organs” value in test [1] was “inhibit ODC activity”. For the same compound, the ODC activity entry in test [1] (setting [4]) was “inhibited ODC activity”.

With `CC(=O)[C@H]1CC[C@H]2[C@@H]3CCC4=CC(=O)CC[C@]4(C)[C@H]3CC[C@]12C` [Progesterone], the “% Inhibition” value with flank organ hair (Experiment I, 15 days treatment in 21-day interval, 1000 micrograms per square centimeter) was 30%; with flank organ hair (Experiment III, 1000 micrograms per square centimeter) it was 57%; with flank organ hair (Experiment IV, 1000 micrograms per square centimeter), 48%. The “ODC activity in flank organs” value in test [1] was “inhibit ODC activity”. Further, the ODC activity entry in test [1] (setting [4]) is recorded as “inhibited ODC activity”.

With `CC(=O)S[C@@H]1CC2=CC(=O)CC[C@]2(C)[C@H]2CC[C@@]3(C)[C@@H](CC[C@@]34CCC(=O)O4)[C@H]12` [Spironolactone], the “% Inhibition” value in the test with flank organ hair (setting [3]) is 41%.
